The test system of data set [1] is Mus musculus. As to the kind of experiment: Inhibition of gluconeogenesis in CD-1 mouse assessed as decrease in blood glucose level at 50 mg/kg administered via gavage at 1 hr prior to pyruvate sodium challenge and measured for 2 hrs by pyruvate tolerance test. In kind it is functional, organism-based. The conditions noted are these: time 3.0 hrs.
For data set [2], the system named is Mus musculus. As to the kind of experiment: Inhibition of gluconeogenesis in CD-1 mouse assessed as decrease in blood glucose level at 50 mg/kg administered via gavage at 2 hrs prior to pyruvate sodium challenge and measured for 2 hrs by pyruvate tolerance test. In kind it is functional, organism-based. Conditions: time 4.0 hrs.
The nature of data set [3]: Toxicity in diabetic ob/ob mouse assessed as effect on daily food intake at 15 mg/kg administered via gavage qd for 24 days. In kind it is organism-based. Conditions: in vivo, po, 576 h, time 24 day.
Data set [4] concerns Hepatocyte. Put plainly: Inhibition of gluconeogenesis in Sprague-Dawley rat hepatocytes at 0.3 uM incubated for 1.5 hrs followed by sodium pyruvate and sodium lactate addition and measured after 4 hrs by colorimetric analysis relative to control. It is filed as functional. Conditions: time 5.5 hrs.
Data set [5] can be described thus: Toxicity in diabetic ob/ob mouse assessed as effect on body weight at 15 mg/kg administered via gavage qd for 24 days. In kind it is organism-based. The conditions noted are these: in vivo, po, 576 h, time 24 day.
In data set [6] the test system is Mus musculus. As to the kind of experiment: Antihyperglycemic activity in diabetic ob/ob mouse assessed as reduction in fasting blood glucose level at 15 mg/kg administered via gavage qd for 24 days and measured on day 24. It is filed as functional, organism-based. Conditions: time 24.0 day.
Data set [7] relates to Hepatocyte. Put plainly: Inhibition of gluconeogenesis in Sprague-Dawley rat hepatocytes at 1 uM incubated for 1.5 hrs followed by sodium pyruvate and sodium lactate addition and measured after 4 hrs by colorimetric analysis relative to control. Conditions: time 5.5 hrs. In kind it is functional.
Data set [8] deals with Mus musculus. As to the kind of experiment: Antihyperglycemic activity in diabetic ob/ob mouse assessed as reduction in non-fasting blood glucose level at 15 mg/kg administered via gavage qd for 24 days and measured on day 24. It is filed as functional, organism-based. Conditions: time 24.0 day.
The subject of data set [9] is Hepatocyte. As to the kind of experiment: Inhibition of gluconeogenesis in Sprague-Dawley rat hepatocytes at 10 uM incubated for 1.5 hrs followed by sodium pyruvate and sodium lactate addition and measured after 4 hrs by colorimetric analysis relative to control. In kind it is functional. The conditions noted are these: time 5.5 hrs.
Data set [10] deals with Hepatocyte. Put plainly: Inhibition of gluconeogenesis in Sprague-Dawley rat hepatocytes at 3 uM incubated for 1.5 hrs followed by sodium pyruvate and sodium lactate addition and measured after 4 hrs by colorimetric analysis relative to control. It is filed as functional. The conditions noted are these: time 5.5 hrs.

The source made the active and inactive calls. The rule behind the calls is not given here.

As to `C=CCc1ccc(OCc2ccc(C(=O)O)o2)c(OC)c1`, the inhibition entry with Mus musculus [1] and in the data set on Mus musculus [2] was “Active” in each case. In addition, the Activity entry in data set [3] and in [5] was “Non-Toxic” throughout. The “fold change (FC)” value in the data set on Hepatocyte [4] was 0.96; with Hepatocyte [7], 0.92; in the data set with Hepatocyte [9], 0.57; in the data set on Hepatocyte [10], 0.73. Further, the outcome in the data set with Mus musculus [6] and with Mus musculus [8] was Active.
